Consider 37 compounds from patent US8546565B2, “Quinazolinamide derivatives” (Merck Patent Gesellschaft, priority 2008, dated 2013).

pIC50: −log10 of the molar value.

This assay deals with T1, Recombinant human HSP90a (Homo sapiens, UniProt P07900).
T1 construct: host or cells: E. coli
The assay can be described thus: HSP90 radioligand filter binding test ([3H]17AAG competition). Conditions: [3H]17AAG 0.08 μM, HSP90 1.5 μg/assay, 22° C., 30 min; read-out: IC50 (HSP90 inhibition). The source says:
Test Method for the Measurement of HSP90 Inhibitors
The binding of geldanamycin or 17-allylamino-17-demethoxygeldanamycin (17AAG) to HSP90 and competitive inhibition thereof can be utilised in order to determine the inhibitory activity of the compounds according to the invention (Carreras et al. 2003, Chiosis et al. 2002).
In the specific case, a radioligand filter binding test is used. The radioligand used here is tritium-labelled 17-allylaminogeldanamycin, [3H]17AAG. This filter binding test allows a targeted search for inhibitors which interfere with the ATP binding site.
Recombinant human HSP90a (E. coli expressed, 95% purity);
[3H]17AAG (17-allylaminogeldanamycin, [allylamino-2,3-^3H. Specific activity: 1.11×10^12 Bq/mmol (Moravek, MT-1717);
HEPES filter buffer (50 mM HEPES, pH 7.0, 5 mM MgCl2, BSA 0.01%)
Multiscreen FB (1 μm) filter plate (Millipore, MAFBNOB 50).
The 96-well microtitre filter plates are firstly irrigated and coated with 0.1% of polyethylenimine.
The test is carried out under the following conditions:
Reaction temperature 22° C.
Reaction time: 30 min., shaking at 800 rpm
50 mM HEPES HCl, pH 7.0, 5 mM MgCl2, 0.01% (w/v) of BSA
At the end of the reaction, the supernatant in the filter plate is removed by suction with the aid of a vacuum manifold (Multiscreen Separation System, Millipore), and the filter is washed twice.
The filter plates are then measured in a beta counter (Microbeta, Wallac) with scintillator (Microscint 20, Packard).
“% of control” is determined from the “counts per minutes” values, and the IC-50 value of a compound is calculated therefrom.
One may read the pIC50 as −log10 of the IC50, conventionally taken in molar units. As to `CC(C)(C)NS(=O)(=O)c1ccccc1-c1ccc2nc(N)nc(C(=O)N3Cc4ccccc4C3)c2c1` [Compound A1, 2-[2-Amino-4-(1,3-dihydroisoindole-2-carbonyl)quinazolin-6-yl]-N-tert-butylbenzenesulfonamide], the pIC50 is 6.00 to 8.00. Under `Nc1nc(C(=O)N2Cc3ccccc3C2)c2cc(-c3ccccc3S(N)(=O)=O)ccc2n1` [Compound A2, 2-[2-amino-4-(1,3-dihydroisoindole-2-carbonyl)quinazolin-6-yl]-benzenesulfonamide] stands 6.00 to 8.00; under `CN(C)CCNS(=O)(=O)c1ccccc1-c1ccc2nc(N)nc(C(=O)N3Cc4ccccc4C3)c2c1` [Compound A3], 6.00 to 8.00.

Regarding `CN(C)S(=O)(=O)c1ccccc1-c1ccc2nc(N)nc(C(=O)N3Cc4ccccc4C3)c2c1` [Compound A4], the negative logarithm of the IC50 (pIC50) was 6.00 to 8.00.

Consider `CCNS(=O)(=O)c1ccccc1-c1ccc2nc(N)nc(C(=O)N3Cc4ccccc4C3)c2c1` [Compound A5, 2-[2-Amino-4-(1,3-dihydroisoindole-2-carbonyl)quinazolin-6-yl]-N-ethylbenzenesulfonamide], for which the pIC50 was 6.00 to 8.00. As for `CNS(=O)(=O)c1ccccc1-c1ccc2nc(N)nc(C(=O)N3Cc4ccccc4C3)c2c1` [Compound A6, 2-[2-Amino-4-(1,3-dihydroisoindole-2-carbonyl)quinazolin-6-yl]-N-methylbenzenesulfonamide], the figure is 6.00 to 8.00; as for `C[N+]1([O-])CCN(S(=O)(=O)c2ccccc2-c2ccc3nc(N)nc(C(=O)N4Cc5ccccc5C4)c3c2)CC1` [Compound A7], 6.00 to 8.00; as for `CN(CCO)S(=O)(=O)c1ccccc1-c1ccc2nc(N)nc(C(=O)N3Cc4ccccc4C3)c2c1` [Compound A8], 6.00 to 8.00. As for `Nc1nc(C(=O)N2Cc3ccccc3C2)c2cc(-c3ccccc3S(=O)(=O)N3CCC(O)CC3)ccc2n1` [Compound A9], the figure is 6.00 to 8.00. As for `NCC(=O)OC1CCN(S(=O)(=O)c2ccccc2-c2ccc3nc(N)nc(C(=O)N4Cc5ccccc5C4)c3c2)CC1` [Compound A10, 1-{2-[2-amino-4-(1,3-dihydroisoindole-2-carbonyl)quinazolin-6-yl]benzenesulfonyl}piperidin-4-yl aminoacetate], the figure is 6.00 to 8.00. For `Nc1nc(C(=O)N2Cc3ccccc3C2)c2cc(-c3ccccc3S(=O)(=O)NCCO)ccc2n1` [Compound A11, 2-[2-Amino-4-(1,3-dihydroisoindole-2-carbonyl)quinazolin-6-yl]-N-(2-hydroxyethyl)benzenesulfonamide], the pIC50 is 6.00 to 8.00. In the case of `Nc1nc(C(=O)N2Cc3ccccc3C2)c2cc(-c3ccccc3S(=O)(=O)N3CCNC(=O)C3)ccc2n1` [Compound A12], the negative logarithm of the IC50 (pIC50) was 6.00 to 8.00. As for `CNCCN(C)S(=O)(=O)c1ccccc1-c1ccc2nc(N)nc(C(=O)N3Cc4ccccc4C3)c2c1` [Compound A13, 2-[2-Amino-4-(1,3-dihydroisoindole-2-carbonyl)quinazolin-6-yl]-N-methyl-N-(2-methylaminoethyl)benzenesulfonamide], the figure is 6.00 to 8.00; as for `NCCNS(=O)(=O)c1ccccc1-c1ccc2nc(N)nc(C(=O)N3Cc4ccccc4C3)c2c1` [Compound A14, 2-[2-Amino-4-(1,3-dihydroisoindole-2-carbonyl)quinazolin-6-yl]-N-(2-aminoethyl)benzenesulfonamide], 6.00 to 8.00; as for `CN(CCOC(=O)CN)S(=O)(=O)c1ccccc1-c1ccc2nc(N)nc(C(=O)N3Cc4ccccc4C3)c2c1` [Compound A15, 2-({2-[2-amino-4-(1,3-dihydroisoindole-2-carbonyl)quinazolin-6-yl]benzenesulfonyl}methylamino)ethyl aminoacetate], 6.00 to 8.00.

Take `CNCCNS(=O)(=O)c1ccccc1-c1ccc2nc(N)nc(C(=O)N3Cc4ccccc4C3)c2c1` [Compound A16, 2-[2-amino-4-(1,3-dihydroisoindole-2-carbonyl)quinazolin-6-yl]-N-(2-methylaminoethyl)benzenesulfonamide]: the pIC50 was 6.00 to 8.00.

Consider `CC(CN(C)C)NS(=O)(=O)c1ccccc1-c1ccc2nc(N)nc(C(=O)N3Cc4ccccc4C3)c2c1` (stereo not shown) [Compound A17], for which the pIC50 was 6.00 to 8.00. Regarding `CN(Cc1cncn1C)S(=O)(=O)c1ccccc1-c1ccc2nc(N)nc(C(=O)N3Cc4ccccc4C3)c2c1` [Compound A18], the pIC50 was 6.00 to 8.00. For `CC1CCCN1S(=O)(=O)c1ccccc1-c1ccc2nc(N)nc(C(=O)N3Cc4ccccc4C3)c2c1` (stereo not shown) [Compound A19, {2-Amino-6-[2-(2-methylpyrrolidine-1-sulfonyl)phenyl]quinazolin-4-yl}-(1,3-dihydroisoindol-2-yl)methanone], the negative logarithm of the IC50 (pIC50) was 6.00 to 8.00. Under `CC(=O)NC1CCN(S(=O)(=O)c2ccccc2-c2ccc3nc(N)nc(C(=O)N4Cc5ccccc5C4)c3c2)C1` (stereo not shown) [Compound A20] stands 6.00 to 8.00; under `Nc1nc(C(=O)N2Cc3ccccc3C2)c2cc(-c3ccccc3S(=O)(=O)N3CCC(CO)C3)ccc2n1` (stereo not shown) [Compound A21, {2-Amino-6-[2-(3-hydroxymethylpyrrolidine-1-sulfonyl)phenyl]quinazolin-4-yl}-(1,3-dihydroisoindol-2-yl)methanone], 6.00 to 8.00. Under `CN(CCO)C(=O)c1ccccc1-c1ccc2nc(N)nc(C(=O)N3Cc4ccccc4C3)c2c1` [Compound A22] stands 6.00 to 8.00; under `Nc1nc(C(=O)N2Cc3ccccc3C2)c2cc(-c3ccccc3C(=O)N3CCC(O)CC3)ccc2n1` [Compound A23], 6.00 to 8.00; under `CCN(CCO)C(=O)c1ccccc1-c1ccc2nc(N)nc(C(=O)N3Cc4ccccc4C3)c2c1` [Compound A24], 6.00 to 8.00. As for `CCN(CCO)S(=O)(=O)c1ccccc1-c1ccc2nc(N)nc(C(=O)N3Cc4ccccc4C3)c2c1` [Compound A25, 2-[2-Amino-4-(1,3-dihydroisoindole-2-carbonyl)quinazolin-6-yl]-N-ethyl-N-(2-hydroxyethyl)benzenesulfonamide], the figure is 6.00 to 8.00; as for `Nc1nc(C(=O)N2Cc3ccccc3C2)c2cc(-c3ccccc3S(=O)(=O)NC3CNC3)ccc2n1` [Compound A26, 2-[2-amino-4-(1,3-dihydroisoindole-2-carbonyl)quinazolin-6-yl]-N-azetidin-3-ylbenzenesulfonamide], 6.00 to 8.00. Turning to `Nc1nc(C(=O)N2Cc3ccccc3C2)c2cc(-c3ccccc3S(=O)(=O)n3ccnc3)ccc2n1` [Compound A27, {2-Amino-6-[2-(imidazole-1-sulfonyl)phenyl]quinazolin-4-yl}-(1,3-dihydroisoindol-2-yl)methanone], the pIC50 is 5.00 to 6.00. Under `Cc1nccn1S(=O)(=O)c1ccccc1-c1ccc2nc(N)nc(C(=O)N3Cc4ccccc4C3)c2c1` [Compound A28, {2-Amino-6-[2-(2-methylimidazole-1-sulfonyl)phenyl]quinazolin-4-yl}-(1,3-dihydroisoindol-2-yl)methanone] stands 6.00 to 8.00; under `Nc1nc(C(=O)N2Cc3ccccc3C2)c2cc(-c3ccccc3S(=O)(=O)N3CC(N)C3)ccc2n1` [Compound A29, {2-amino-6-[2-(3-aminoazetidine-1-sulfonyl)phenyl]quinazolin-4-yl}-(1,3-dihydroisoindol-2-yl)methanone], 6.00 to 8.00. Turning to `Cc1cn(S(=O)(=O)c2ccccc2-c2ccc3nc(N)nc(C(=O)N4Cc5ccccc5C4)c3c2)cn1` [Compound A30, {2-Amino-6-[2-(4-methylimidazole-1-sulfonyl)phenyl]quinazolin-4-yl}-(1,3-dihydroisoindol-2-yl)methanone], the pIC50 is 6.00 to 8.00.

Consider `Nc1nc(C(=O)N2Cc3ccccc3C2)c2cc(-c3ccccc3S(=O)(=O)N3CCC(O)C3)ccc2n1` (stereo not shown) [Compound A31], for which the pIC50 was 6.00 to 8.00. In the case of `Nc1nc(C(=O)N2Cc3ccccc3C2)c2cc(-c3ccccc3S(=O)(=O)N3CCCC3)ccc2n1` [Compound A32, {2-Amino-6-[2-(pyrrolidine-1-sulfonyl)phenyl]quinazolin-4-yl}-(1,3-dihydroisoindol-2-yl)methanone], the negative logarithm of the IC50 (pIC50) was 6.00 to 8.00.

For the compound `Nc1nc(C(=O)N2Cc3ccccc3C2)c2cc(-c3ccccc3S(=O)(=O)N3CCC(N)C3)ccc2n1` (stereo not shown) [Compound A33, {2-amino-6-[2-(3-aminopyrrolidine-1-sulfonyl)phenyl]quinazolin-4-yl}-(1,3-dihydroisoindol-2-yl)methanone], the pIC50 was 6.00 to 8.00. As for `Nc1nc(C(=O)N2Cc3ccccc3C2)c2cc(-c3ccccc3C(=O)N3CCC(CO)C3)ccc2n1` (stereo not shown) [Compound A35], the figure is 6.00 to 8.00; as for `Nc1nc(C(=O)N2Cc3ccccc3C2)c2cc(-c3ccccc3C(=O)N3CCC(O)C3)ccc2n1` (stereo not shown) [Compound A36], 6.00 to 8.00; as for `COC(=O)C1CCCN1C(=O)c1ccccc1-c1ccc2nc(N)nc(C(=O)N3Cc4ccccc4C3)c2c1` (stereo not shown) [Compound A37, Methyl 1-{2-[2-amino-4-(1,3-dihydroisoindole-2-carbonyl)quinazolin-6-yl]benzoyl}pyrrolidine-2-carboxylate], 6.00 to 8.00. On to `CN(C)C(=O)c1ccccc1-c1ccc2nc(N)nc(C(=O)N3Cc4ccccc4C3)c2c1` [Compound A38], for which the pIC50 is 6.00 to 8.00.
